Test: gradient 5% acetonitrile 3 min, to 50% in 2 min, to 85% in 15 min, held 3 min, 100 µL/min
Details: column: Zorbax Extend-C18 2.1 x 50 mm; eluents: water / acetonitrile, 0.1% formic acid
How it was run: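 Over 3 months, pure standards in mixtures of ~100 molecules were run by HPLC coupled to a quadrupole time-of-flight mass spectrometer in positive and negative ionization mode. The column was a Zorbax Extend-C18 (2.1 × 50 mm, 1.8 μm) at 100 μL/min, eluted with water and acetonitrile each holding 0.1% formic acid, with 40 μL dead and 900 μL dwell volumes. Retention time was determined from adduct peaks chosen by software and checked manually.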

| RP-LC retention time [s] | SMILES |
| --- | --- |
| 558 | Cn1c(CN2CCN(C(=O)Nc3ccccc3C(F)(F)F)CC2)nc2ccccc21 |
| 803 | O=C(N[C@H]1C[C@@H]2C[C@H]1CN2S(=O)(=O)c1ccc2c(c1)OCCO2)c1ccccc1 |
| 658 | CNCc1ccc(-c2cc(Cl)cc(Cl)c2)o1 |
| 682 | O=C(CN1CCCc2nc(C3CC3)ncc2C1=O)NCc1cccs1 |
| 715 | Cc1cc(NC(=O)NC(=O)c2ccccc2NC(=O)C(C)N)ccc1Oc1ncc(Br)cn1 (centres undefined) |
| 576 | COc1ccc(CN2C(=O)[C@H](OC)[C@@H]2C2=CCNCC2)cc1 |
| 892 | O=C(c1cccs1)N1CCc2ccc(NS(=O)(=O)C3CCCCC3)cc21 |
| 668 | Cc1c(C(=O)NC2CC2)cnn1-c1cc(-c2nc(C(C)(C)C)no2)ccn1 |
| 714 | CCn1cnc2ccc(C(=O)NC3CC3)cc2c1=O |
| 979 | CCn1c(=O)sc2cc(S(=O)(=O)N3CCC(C(=O)Nc4ccc(C)c(F)c4)CC3)ccc21 |
| 927 | O=S(=O)(c1cccn2c(SCc3ccccc3Cl)nnc12)N1CCCCC1 |
| 1010 | COc1cccc(-c2noc(Cc3nnc(-c4ccc(C)c(F)c4)o3)n2)c1OC |
| 1050 | Cc1ccc(N2C(=O)C3N=NN(c4ccc(F)cc4)C3C2=O)cc1C (centres undefined) |
| 585 | Cc1ccc(C)c(C(=O)Nc2cc(-c3cccnc3)no2)c1 |
| 696 | Cc1oc(-c2ccc(C(=O)NCCN(C)C)cc2)nc1CSc1ccccc1 |
| 1010 | COc1ccc(S(=O)(=O)N2CCCC(C(=O)N3CCN(c4ccccc4)CC3)C2)cc1Cl (centres undefined) |
| 900 | CCOc1cc(=O)n2c(c1C(=O)OCc1cccc(F)c1)CCCC2 |
| 804 | Cc1ccc(-n2nc3c(N4CCCC(C(=O)NCc5ccccc5Cl)C4)nnc(C)c3c2C)cc1 (centres undefined) |
| 1250 | COc1ccc(-c2noc(C3(NC(=O)c4cc(C)cc(C)c4)CCCCC3)n2)cc1 |
| 981 | Cc1cc(OCC(=O)Nc2ccc(C(C)C)cc2)nc(N2CCN(c3ccccc3)CC2)n1 |
| 676 | Cc1cccc2nc(-c3ccc(N4CCOCC4)cc3)c(Nc3ccc4c(c3)OCO4)n12 |
| 830 | Cc1ccc(N2CCN(C(=O)c3cn4cc(Cl)ccc4n3)CC2)cc1 |

| RP-LC retention time [s] | SMILES |
| --- | --- |
| 735 | CC1SC(C)C(=O)N(CC(=O)Nc2ccc3c(c2)OCCO3)C1=O (centres undefined) |
| 823 | CCN1c2ccccc2C(=O)NC12CCN(C(=O)Cc1ccc(C)cc1)CC2 |
| 755 | O=C(NCc1ccc(Br)cc1)C1CCCN(c2cnc3nccnc3c2)C1 (centres undefined) |
| 928 | O=C(NCc1nc(-c2ccc3c(c2)Sc2ccccc2C(=O)N3C2CC2)no1)c1cccs1 |
| 1050 | COc1cc(N2C=C(C#N)S(=O)(=O)c3ccc(Cl)cc32)c(OC)cc1Cl |
| 814 | O=C(Nc1nnc(-c2ccc(Cl)s2)o1)c1ccc(S(=O)(=O)N2CCCC2)cc1 |
| 1040 | Cc1nc(-c2csc(S(=O)(=O)N3CCCC(C(=O)Nc4ccc(Cl)cc4C)C3)c2)no1 (centres undefined) |
| 646 | CCN(CC)CCNc1ccc(CO)c2sc3ccccc3c(=O)c12 |
| 739 | Cc1ccc(NC(=O)Cn2nc3c(N4CCCCCC4)nccn3c2=O)cc1F |
| 1010 | COc1ccccc1NC(=O)NC(C)(C)CC(C)(C)C |
| 774 | O=C(Nc1cccn2nc(C3CCC3)nc12)C1CCCO1 (centres undefined) |
| 1130 | CCn1ccc2oc(C)c(C(=O)NCc3ccc(C(C)C)cc3)c2c1=O |
| 1390 | CCCN(C(=O)c1ccco1)c1nc(-c2ccc(C)cc2)cs1 |
| 568 | Cc1ccc(NC(=O)N2CCC3(C2)c2nc[nH]c2CCN3C)c(C)c1 (centres undefined) |
| 1010 | Cc1noc(C)c1-c1ccc(S(=O)(=O)Nc2ccc(Br)cc2F)cc1 |
| 583 | O=C(c1cc(-c2ccco2)[nH]n1)N1CCN(c2ccccn2)CC1 |
| 588 | COc1ccc(-n2nc(C(=O)N3CCC(C(N)=O)CC3)c(=O)cc2OC)cc1OC |
| 1020 | CCc1ccc(-c2nc(C3CC(=O)N(c4ccc(Cl)cc4)C3)no2)cc1 (centres undefined) |
| 683 | O=C(CN1CCN(Cc2cccc(Cl)c2)C1=O)NC1CC1 |
| 781 | COc1ccc(NC(=O)N2CCC3(CC2)NC(=O)c2ccccc2N3C)c(C)c1 |
| 1320 | Cc1ccc(-c2csc(Cc3nc(-c4ccc(F)cc4)no3)n2)cc1C |
| 1030 | CN(C)c1cccc(-c2nc(-c3cn(Cc4ccc(F)cc4)nn3)no2)c1 |

| RP-LC retention time [s] | SMILES |
| --- | --- |
| 763 | Cc1ccc2c(c1)C(=O)NC1(CCN(C(=O)NC3CCCCC3)CC1)N2C |
| 674 | Cc1cccc(C(=O)Nc2c(-c3ccccc3)nc3cc(C)ccn23)c1 |
| 583 | Cc1nc(N2CCN(c3ccccn3)CC2)nc2c1C(=O)CCC2 |
| 981 | CCOc1ccccc1-c1csc(NC(=O)c2sc(C)nc2C)n1 |
| 618 | O=C(NCCCn1cccn1)C1CCN(c2nnc3ccc(Cl)cn23)CC1 |
| 754 | CC(C)n1cnc(S(=O)(=O)N2CCC(C(=O)N3CCN(c4ccccc4)CC3)CC2)c1 |
| 607 | CC(=O)N1CCCc2cc(S(=O)(=O)N3CCC(C(=O)NCc4ccccn4)CC3)ccc21 |
| 754 | COC(=O)c1c(C)[nH]c(C(=O)N2CCCC(C(=O)NCc3ccc(C)cc3)C2)c1C (centres undefined) |
| 779 | O=C(Nc1cccc(-c2nnc3n2CCCC3)c1)c1ccc2ccccc2n1 |
| 822 | COc1cccc(-n2c(N3CCCC(C(=O)NCc4cccs4)C3)nc3ccsc3c2=O)c1 (centres undefined) |
| 535 | COCC(=O)N1CCN(C2CCN(CCC(C)C)C2=O)CC1 (centres undefined) |
| 675 | CCOC(=O)c1ccc(Nc2c(C(=O)N3CCC(C)CC3)cnc3nc(C)ccc23)cc1 |
| 872 | COC(=O)c1cccc(N2C=C(C#N)S(=O)(=O)c3cc(F)ccc32)c1 |
| 733 | Cc1cc(C(=O)Nc2c3c(nn2-c2ccccc2)CCC3)nn1C |
| 809 | CCc1c(C(=O)O)nnn1-c1ccc(Cl)c(C)c1 |
| 807 | O=C(Nc1nnc(C2CC(=O)N(c3ccccc3)C2)o1)c1ccccc1Cl (centres undefined) |
| 712 | O=C(c1nc2ccccn2c1-c1ccc(Cl)cc1)N1CCCC1 |
| 698 | COc1ccc(-c2ccc3c(N4CCOCC4)nc(N4C[C@@H](C)O[C@@H](C)C4)nc3n2)cc1CO |
| 780 | c1cc2c(cc1-c1noc(CCC3CCCC3)n1)nnn2CCN1CCOCC1 |
| 1140 | COc1cccc(C2Cn3nnc(-c4nc(-c5ccc(OC)c(F)c5)no4)c3CO2)c1 (centres undefined) |
| 925 | Cc1ccc2[nH]cc(CCN3CC(C(=O)Nc4ccc5c(c4)CCC5)CC3=O)c2c1 (centres undefined) |
| 647 | COc1ccc(NC(=O)NCCc2nc3cccnc3n2C2CCCC2)cc1OC |

| RP-LC retention time [s] | SMILES |
| --- | --- |
| 914 | CCc1noc(NC(C)=O)c1-c1ccc(C)c(S(=O)(=O)Nc2ccc(C)c(Cl)c2)c1 |
| 1130 | CCn1ccc(C(=O)N2CC(Oc3ccc(-c4nc(-c5ccccc5)no4)cc3)C2)n1 |
| 886 | Cc1nnc(-c2cc(NC(=O)Cc3c(F)cccc3Cl)c(C)s2)o1 |
| 925 | CC(C)N1C(=O)c2cccnc2Sc2cc(NC(=O)c3ccc(F)c(F)c3)ccc21 |
| 567 | CCCn1cc(C(=O)N2CCC(N3CCCCC3)CC2)c2cccnc21 |
| 867 | COCC(=O)N(CC(=O)N1CCc2sccc2C1COc1ccc(C)cc1)C(C)C (centres undefined) |
| 910 | O=C(CN1CCc2ccccc2C1C(=O)N1CCCCC1)NCc1ccc(Cl)cc1 (centres undefined) |
| 583 | O=C(NC1CCCCC1N1C(=O)CSC1=O)c1ccc(=O)[nH]c1 (centres undefined) |
| 553 | CN(C)[C@@H]1CN(C(=O)c2ccc(F)cc2Cl)C[C@H]1CO |
| 862 | CCC(C(=O)NCc1ccc(C)o1)n1nc(C)c2c(C)n(-c3ccccc3)nc2c1=O (centres undefined) |
| 603 | CN1CCN(CCNC(=O)c2nc3ccccn3c2-c2ccc(Cl)cc2)CC1 |
| 1020 | Cc1cccc(NC(=O)N2CCCC2c2nc(-c3cccc(F)c3)no2)c1 (centres undefined) |
| 605 | Cc1ccccc1-c1ccc(N2CCC(C(=O)NCc3ccco3)CC2)nn1 |
| 600 | CC(CCNC(=O)c1ccc(NC(=O)C2=CSCCO2)cc1)N1CCCC1 (centres undefined) |
| 696 | CSc1cccc(NC(=O)N2CCN(c3cc(C)nc(N4CCCC4)n3)CC2)c1 |
| 845 | Fc1cccc(Cl)c1C1SCc2nc3ccccc3n21 (centres undefined) |
| 827 | COc1ccc(NC(=O)N2CCOc3ccc(C)cc32)cc1OC |
| 1030 | CS(=O)(=O)Nc1ccc(C2(C(=O)NCCC3=CCCCC3)CCCCC2)cc1 |
| 790 | CCOCC(=O)N1CCCN(C2=NS(=O)(=O)C(c3ccc(CC)cc3)=C2C)CC1 |
| 839 | CCCCC(=O)Nc1nc(-c2ccc3c(c2)NC(=O)CO3)c(C)s1 |
| 755 | O=C(Nc1cccc(F)c1)N1CCC(N2CCN(Cc3cccc(F)c3)C(=O)C2=O)CC1 |
| 993 | Cc1cc(OCC(=O)Nc2ccccc2Cl)nc(N2CCN(c3ccccc3)CC2)n1 |

| SMILES | RP-LC retention time [s] |
| --- | --- |
| Cc1c(C(=O)c2ccccc2)c2ccccc2n1C | 1030 |

Reference: the METLIN SMRT retention time set (Domingo-Almenara et al. 2019)
